Test results published in patent US20170334927A1 (Shanghai Sun-sail Pharmaceutical Science & Technology Co., …, priority 2014, published 2017).
In brackets after ≈: the same amount, converted by molar mass. Where a name gives a salt, the structure may show the parent alone.

How the values were obtained:
[1] = in vivo; cited from earlier work
[2] = physchem; assay type: physicochemical; settings: for solubility at 3 days: pH 1.2, simulated gastric fluid, thermodynamic from solid; for Solubility: 3 days, pH 1.2
Experimental: 3-5 mg of compound to be tested was added to 0.5 mL of aqueous HCl solution (pH=1.2) and the mixture was shaken for three days on a shaker; the sample was centrifuged for 5 min at 10,000 rpm in a centrifuge; a volumetric flask (50 mL) was loaded with 2 mL of supernatant and water was added to a volume at the graduation mark to prepare a sample solution; and 2.6 mg of sample was precisely weighed into a volumetric flask (50 mL), an appropriate amount of methanol was added to dissolve the sample, and water was added to a volume at the graduation mark and shaken well to give a control sample solution. 20 μL of sample solution and control sample solution were each injected, and tested by liquid chromatography. The solubility was calculated as follows:
Solubility (mg/mL)=C (control)*25*A (sample)/A (control)
C (control): concentration of the control sample
A (sample): peak area of the liquid chromatogram of the sample solution
A (control): peak area of the liquid chromatogram of the control sample solution

[3] = system: Mycobacterium tuberculosis H37Rv; test: Activity test for Mycobacterium tuberculosis (MIC, H37Rv); assay type: cell-based; settings: for MIC: Mycobacterium tuberculosis H37Rv, liquid medium, 37° C., read-out: Minimum inhibitory concentration against H37Rv; for anti Mycobacterium tuberculosis activity (MIC against H37Rv), times of that of PA-824: relative to PA-824; for anti Mycobacterium tuberculosis activity (MIC against H37Rv), times of that of ethambutol: relative to ethambutol
Experimental: The tested strain H37Rv was transferred to liquid medium and cultured for 2 weeks at 37° C.; a small amount of the cultured bacterial solution was pipetted and placed in 4 mL of liquid medium; 10-20 sterile glass beads with a diameter of 2-3 mm were added; the mixture was shaken for 20-30 s and left to sediment for 10-20 min; the supernatant of the bacterial suspension was pipetted and adjusted to a turbidity of 1 MCF (equivalent to 1×10^7 CFU/mL) with the liquid medium for use. Each drug was dissolved to 1 mg/mL with an appropriate amount of DMSO and filtered with a 0.22 μm filter. Then, the solution was diluted to a desired experimental concentration with the liquid medium. The final concentrations of the tested drugs were set as follows: 0.001 μg/mL, 0.002 μg/mL, 0.0039 μg/mL, 0.0078 μg/mL, […], 0.03125 μg/mL, 0.0625 μg/mL, 0.125 μg/mL, 0.25 μg/mL, 0.5 μg/mL and 1 μg/mL, a total of 11 concentration gradients. 100 μL of each of the above-mentioned drug solutions was added to a 96-well microwell plate, then 100 μL bacterial solution with a concentration of 1 mg/mL was added to allow the drug concentration to reach the final set concentration, and cultured at 37° C. Three groups in parallel were set for each drug dilution with inoculation amounts of 100%, 10% and 1%, respectively, while no drug was added to the control group.

[4] = target: T1, hERG potassium channel (Homo sapiens, UniProt Q12809); test: Inhibitory effect on hERG potassium ion channel (whole cell patch clamp, HEK-293 cells); assay type: cell-based; settings: hERG potassium current, room temperature, read-out: IC50 (inhibition on hERG)
T1 construct: host or cells: HEK-293
T1 sequence (Q12809 whole entry): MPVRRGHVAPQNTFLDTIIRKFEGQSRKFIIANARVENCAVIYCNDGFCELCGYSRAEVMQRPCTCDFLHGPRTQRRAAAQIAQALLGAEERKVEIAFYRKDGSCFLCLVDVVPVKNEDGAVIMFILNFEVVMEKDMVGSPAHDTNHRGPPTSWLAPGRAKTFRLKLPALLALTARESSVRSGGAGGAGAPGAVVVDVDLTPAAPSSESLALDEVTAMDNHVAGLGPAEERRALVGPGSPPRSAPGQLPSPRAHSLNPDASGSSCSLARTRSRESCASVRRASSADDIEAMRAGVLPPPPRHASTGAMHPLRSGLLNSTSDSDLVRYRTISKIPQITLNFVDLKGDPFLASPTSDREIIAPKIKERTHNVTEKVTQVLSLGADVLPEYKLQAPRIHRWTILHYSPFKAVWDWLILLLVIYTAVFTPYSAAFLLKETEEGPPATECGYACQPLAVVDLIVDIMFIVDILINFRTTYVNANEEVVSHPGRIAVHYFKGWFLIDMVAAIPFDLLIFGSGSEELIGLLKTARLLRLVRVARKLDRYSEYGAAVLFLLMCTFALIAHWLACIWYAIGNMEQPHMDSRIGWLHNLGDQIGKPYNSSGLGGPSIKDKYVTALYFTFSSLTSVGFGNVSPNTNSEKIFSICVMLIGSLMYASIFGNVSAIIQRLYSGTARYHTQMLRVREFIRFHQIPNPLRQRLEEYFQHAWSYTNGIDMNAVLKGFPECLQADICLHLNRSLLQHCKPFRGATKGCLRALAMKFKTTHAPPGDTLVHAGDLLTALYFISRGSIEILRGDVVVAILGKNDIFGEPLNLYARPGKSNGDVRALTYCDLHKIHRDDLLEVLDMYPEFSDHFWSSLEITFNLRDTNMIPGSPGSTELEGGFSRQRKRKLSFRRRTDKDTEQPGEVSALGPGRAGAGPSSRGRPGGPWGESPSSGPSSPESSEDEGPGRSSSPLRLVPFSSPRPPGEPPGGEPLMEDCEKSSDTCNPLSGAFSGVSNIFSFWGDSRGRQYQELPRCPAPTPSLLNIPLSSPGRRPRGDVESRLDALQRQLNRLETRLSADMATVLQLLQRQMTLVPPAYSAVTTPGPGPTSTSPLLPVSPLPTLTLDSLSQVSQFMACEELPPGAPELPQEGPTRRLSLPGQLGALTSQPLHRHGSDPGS
Experimental: hERG potassium channel currents were recorded with the whole cell patch clamp technique at room temperature in HEK-293 cells (Creacell™, France) expressing hERG stably. A glass microelectrode with a tip resistance of about 1-4 MΩ was connected to the Axon 200A patch clamp amplifier. Clamp voltage and data record were controlled by a computer via the Axon DigiData 1322A A/D converter with the clampex 9.2 software; the cells were clamped at −80 mV; and the step voltage for inducing the hERG potassium current (IhERG) was changed from −80 mV to +20 mV by providing a 2 s depolarization voltage, repolarized to −40 mV and returned to −80 mV after 4 s. This voltage step was given respectively before and after administration to induce the hERG potassium current.
Data analysis and processing were performed with the PatchMaster, GraphPad Prism 5 and Excel softwares. The degree of inhibition of different compound concentrations on the hERG potassium current (hERG tail current peak induced at −50 mV) was calculated using the following formula:
Fractional block %=[1−(I/Io)]×100%
in the formula, Fractional block represents the percent inhibition of a compound on the hERG potassium current, and I and Io represent the magnitudes of the hERG potassium current […], respectively.
The IC50 of a compound was calculated using the following equation by fitting: […]
in the equation, I and Io represent the magnitudes of the hERG potassium current […], respectively; [C] is the compound concentration, and n is the Hill coefficient.

[5] = Drug metabolism test (pharmacokinetics, oral, mice); assay type: in vivo, ICR mice; settings: 10 mg/kg; for AUC(0-inf) / AUC(0-t) / Cmax / MRT / Tmax / half-life: male, ICR, mouse, po, orally (intragastric), plasma; for pharmacokinetic properties (in words): orally, judgement on Table 6
Experimental: 18 healthy male ICR mice with a body weight of 18-22 g were administered drugs by intragastric administration, with an administration dose of 10 mg/kg and an administration volume of 10 mL/kg, respectively. These mice were fasted for 12 h before the test and had free access to drinking water. These mice were fed 2 h after administration uniformly. 0.3 mL of blood was taken from the postocular venous plexus of a mouse at the set time points, placed in a heparinized test tube and centrifuged for 10 min at 3000 rpm; and plasma was separated and frozen in a refrigerator at −20° C. When measured, the sample was treated through the method for treating the plasma sample, and the drug concentration in plasma was determined by LC-MS/MS and the pharmacokinetic parameters of the drug were calculated.

SMILES | oral bioavailability (in words, background) [1] | solubility at 3 days [2] | MIC [3] | IC50 [4] | AUC(0-inf) [5] | AUC(0-t) [5] | Cmax [5] | MRT [5] | Tmax [5] | half-life [5] | Solubility [2] | anti Mycobacterium tuberculosis activity (MIC against H37Rv), times of that of PA-824 [3] | anti Mycobacterium tuberculosis activity (MIC against H37Rv), times of that of ethambutol [3] | melting point | pharmacokinetic properties (in words) [5]
O=[N+]([O-])c1cn2c(n1)OC[C@@H](OCc1ccc(OC(F)(F)F)cc1)C2 [PA-824, reference compound] | low | 17 µg/mL (≈ 47.3 µM) | 62.5 ng/mL (≈ 0.174 µM) | – | – | – | – | – | – | – | – | – | – | – | –
O=[N+]([O-])c1cn2c(n1)OC[C@@H](NCc1cnc(N3CCN(c4ccc(OC(F)(F)F)cc4)CC3)nc1)C2 [Compound 18] | – | > 1000 µg/mL | 7.8 ng/mL (≈ 0.015 µM) | 41.1 µM | 16700 ng·h/mL | 16000 ng·h/mL | 1470 ng/mL | 7.11 h | 2 h | 5.29 h | 1532.1 µg/mL (≈ 2940 µM) | 8 times | 64 times | – | –
CC1CN(c2ncc(CN[C@@H]3COc4nc([N+](=O)[O-])cn4C3)cn2)CCN1c1ccc(OC(F)(F)F)cc1 (stereo partly drawn) [Compound 19] | – | > 1000 µg/mL | 7.8 ng/mL (≈ 0.0146 µM) | 38.3 µM | 16800 ng·h/mL | 16300 ng·h/mL | 1780 ng/mL | 5.02 h | 1.98 h | 3.17 h | 1321.8 µg/mL (≈ 2470 µM) | 8 times | 64 times | – | –
Cc1nc(N2CCN(c3ccc(OC(F)(F)F)cc3)CC2)ncc1CN[C@@H]1COc2nc([N+](=O)[O-])cn2C1 (as salt: methanesulfonate) [Compound 49, (S)-N-((4-methyl-2-(4-(4-(trifluoromethoxy)phenyl)piperazin-1-yl)pyrimidin-5-yl)methyl)-2-nitro-6,7-dihydro-5H-imidazo[2,1-b][1,3]oxazin-6-amine methanesulfonate] | – | – | – | – | – | – | – | – | – | – | – | – | – | 175 to 177 °C | –
O=[N+]([O-])c1cn2c(n1)OC[C@@H](NCc1cnc(N3CCN(c4ccc(C(F)(F)F)cc4)CC3)nc1)C2 [Compound 31, (S)-2-nitro-N-((2-(4-(4-(trifluoromethyl)phenyl)piperazin-1-yl)pyrimidin-5-yl)methyl)-6,7-dihydro-5H-imidazo[2,1-b][1,3]oxazin-6-amine] | – | > 1000 µg/mL | 7.8 ng/mL (≈ 0.0155 µM) | 39.5 µM | 22500 ng·h/mL | 22400 ng·h/mL | 2140 ng/mL | 4.18 h | 1.97 h | 3.05 h | 1354.8 µg/mL (≈ 2690 µM) | 8 times | 64 times | – | excellent
N#CC1(c2ccc(OC(F)(F)F)cc2)CCN(c2ncc(CN[C@@H]3COc4nc([N+](=O)[O-])cn4C3)cn2)CC1 [Compound 24, (S)-1-(5-(((7-nitro-3,4-dihydro-2H-imidazo[2,1-b][1,3]oxazin-3-yl)amino)methyl)pyrimidin-2-yl)-4-(4-(trifluoromethoxy)phenyl)piperidine-4-carbonitrile] | – | 782 µg/mL (≈ 1440 µM) | 3.9 ng/mL (≈ 0.00716 µM) | – | 18300 ng·h/mL | 18200 ng·h/mL | 1980 ng/mL | 4.45 h | 2.17 h | 3.52 h | – | 16 times | 128 times | – | –
CN(Cc1cnc(N2CCN(c3ccc(OC(F)(F)F)cc3)CC2)nc1)[C@@H]1COc2nc([N+](=O)[O-])cn2C1.O=C(O)/C=C/C(=O)O | – | – | – | – | – | – | – | – | – | – | – | – | – | 143 to 145 °C | –
N#CC1(c2ccc(OC(F)(F)F)cc2)CCN(c2ccc(CN[C@@H]3COc4nc([N+](=O)[O-])cn4C3)cn2)CC1 [Compound 10, (S)-1-(5-(((7-nitro-3,4-dihydro-2H-imidazo[2,1-b][1,3]oxazin-3-yl)amino)methyl)pyridin-2-yl)-4-(4-(trifluoromethoxy)phenyl)piperidine-4-carbonitrile] | – | 522 µg/mL (≈ 960 µM) | 1.95 ng/mL (≈ 0.00359 µM) | – | 28800 ng·h/mL | 28800 ng·h/mL | 2030 ng/mL | 4.68 h | 2.18 h | 3.35 h | – | 32 times | 256 times | – | excellent
C[C@]1(COc2ccc(N3CCC(Oc4ccc(OC(F)(F)F)cc4)CC3)cc2)Cn2cc([N+](=O)[O-])nc2O1 [OPC-67683] | very low | – | – | – | – | – | – | – | – | – | – | – | – | – | –
Cc1nc(N2CCN(c3ccc(OC(F)(F)F)cc3)CC2)ncc1CN[C@@H]1COc2nc([N+](=O)[O-])cn2C1 [Compound 36] | – | > 1000 µg/mL | 7.8 ng/mL (≈ 0.0146 µM) | – | 16700 ng·h/mL | 16100 ng·h/mL | 2020 ng/mL | 4.71 h | 1.87 h | 2.87 h | 1123.7 µg/mL (≈ 2100 µM) | 8 times | 64 times | – | –
